Patent US20080214563A1, “Benzimidazole Thiophene Compounds As Plk Modulators” (priority 2005, published 2008)

Tests used:
HN5 = experiment: Cell-Titer Glo Cell Growth Inhibition Assay, HN5; format: cell-based; conditions: Homo sapiens, CellTiter-Glo, 72 h, read-out: CTG HN5 IC50
Method: (§1) A549-L (human lung), BT474 (human breast), Colo 205 (human colon), H1299 (human lung), Hela (human cervix), HCT-116 (human colon), HN5 (human head and neck), HT29 (human colon), LNCap (human prostate), MCF7 (human breast), MDA-MB468 (human breast), MX-1 (human breast), RPMI 8226 (human peripheral blood), SKOV3 (human ovary) and P388 (murine leukemia) cell lines were cultured in RPMI1640 containing 10% fetal bovine serum at 37° C. in a 5% CO2 incubator. Cell lines were split into T75 flasks (Falcon #353136) two to three days prior to assay set up at density which yields approximately 70-80% confluency at time of harvest for assay. Cells were harvested using 0.25% trypsin with EDTA (Glibco/Invitrogen #25200-056), Cell counts were performed on cell suspensions using Trypan Blue exclusion staining, cells were then plated in 105 uL of culture media per well at the following densities in 96 well Costar #3916 black flat bottom plates: All human cell lines were plated at 500 cells/well. P388 were plated at 250 cells/well. All plates were placed at 5% CO2 37° C. overnight and then test compounds were added the following day. One plate of each cell type is treated with CellTiter-Glo (Promega #G7573) for a day 0 proliferation measurement and read as described below. […]

MDA-MB468 = experiment: Cell-Titer Glo Cell Growth Inhibition Assay, MDA-MB468; format: cell-based; conditions: Homo sapiens, MDA-MB-468, CellTiter-Glo, 72 h, read-out: CTG MDA-MB468 IC50
Method: as §1

P388 = experiment: Cell-Titer Glo Cell Growth Inhibition Assay, P388; format: cell-based, murine; conditions: Mus musculus, CellTiter-Glo, 72 h, read-out: CTG P388 IC50
Method: (§2) A549-L (human lung), BT474 (human breast), Colo 205 (human colon), H1299 (human lung), Hela (human cervix), HCT-116 (human colon), HN5 (human head and neck), HT29 (human colon), LNCap (human prostate), MCF7 (human breast), MDA-MB468 (human breast), MX-1 (human breast), RPMI 8226 (human peripheral blood), SKOV3 (human ovary) and P388 (murine leukemia) cell lines were cultured in RPMI1640 containing 10% fetal bovine serum at 37° C. in a 5% CO2 incubator. Cell lines were split into T75 flasks (Falcon #353136) two to three days prior to assay set up at density which yields approximately 70-80% confluency at time of harvest for assay. Cells were harvested using 0.25% trypsin with EDTA (Glibco/Invitrogen #25200-056), Cell counts were performed on cell suspensions using Trypan Blue exclusion staining, cells were then plated in 105 uL of culture media per well at the following densities in 96 well Costar #3916 black flat bottom plates: All human cell lines were plated at 500 cells/well. P388 were plated at 250 cells/well. All plates were placed at 5% CO2 37° C. overnight and then test compounds were added the following day. One plate of each cell type is treated with CellTiter-Glo (Promega #G7573) for a day 0 proliferation measurement and read as described below. The test compounds are prepared in clear U bottom polypropylene 96 well plates (Falcon #35-1190 with consecutive two fold dilutions. 9 uL of these dilutions was added into each well of the cell plates. The final concentration of DMSO in all wells is 0.15%. Cells were incubated at 37° C., 5% CO2 for 72 h. Following 72 h of incubation with compounds each plate was developed and read. CellTiter-Glo reagent was added to assay plates using a volume equivalent to the cell culture volume in the wells. Plates were shaken for approximately two minutes and incubated at room temperature for approximately 15 min and the chemiluminescent signal is read on the Victor V or Envison 2100 reader. […] Concentration of compound that inhibited 50% of cell growth (IC50) was analysis by 4 or 6 parameter fit of data using XLfit, value of no cell addition was subtracted from all samples for background.

MX-1 = experiment: Cell-Titer Glo Cell Growth Inhibition Assay, MX-1; format: cell-based; conditions: Homo sapiens, MX1, CellTiter-Glo, 72 h, read-out: CTG MX-1 IC50
Method: as §2

HCT-116 = experiment: Cell-Titer Glo Cell Growth Inhibition Assay, HCT116; format: cell-based; conditions: Homo sapiens, CellTiter-Glo, 72 h, read-out: CTG HCT116 IC50
Method: as §2

H1299 = experiment: Cell-Titer Glo Cell Growth Inhibition Assay, H1299; format: cell-based; conditions: Homo sapiens, NCI-H1299, CellTiter-Glo, 72 h, read-out: CTG H1299 IC50
Method: as §1

SKOV3 = experiment: Cell-Titer Glo Cell Growth Inhibition Assay, SKOV-3; format: cell-based; conditions: Homo sapiens, SK-OV-3, CellTiter-Glo, 72 h, read-out: CTG SKOV-3 IC50
Method: as §2

RPMI 8226 = experiment: Cell-Titer Glo Cell Growth Inhibition Assay, RPMI 8226; format: cell-based; conditions: Homo sapiens, CellTiter-Glo, 72 h, read-out: CTG RPMI 8226 IC50
Method: as §1

Colo 205 = experiment: Cell-Titer Glo Cell Growth Inhibition Assay, COLO205; format: cell-based; conditions: Homo sapiens, CellTiter-Glo, 72 h, read-out: CTG COLO205 IC50
Method: as §2

[1] = Intravenous pharmacokinetics in CD-1 mouse; format: in vivo; conditions: plasma, iv bolus, male CD-1 mouse, dose 1.9-7.4 mg/kg per compound (Table 3)
Method: Preliminary investigation of the intravenous pharmacokinetics of compounds of invention were carried out in fed conscious CD-1 mouse. Compounds were formulated as 1-10 mg/kg, 5 mL/kg, 1-2 mg/mL solution (Table 3). Twenty one male mice (n=3 mice per time point) (˜30 g) received dose solution by bolus injection in the tail vein. The formulation for iv were either 20% beta cyclodextrin in saline pH 3.5-6 or PEG400:ethanol:saline (50:15:35 v/v). Blood samples (˜0.4 mL) were collected terminally by cardiac puncture following anesthetization in a CO2 chamber at 2, 15, 30, 60 min, 2, 4, and 6 h following iv administration. Blood samples were collected into tubes containing heparin and placed on crushed ice promptly after collection. Plasma was collected by centrifugation, frozen and stored at about −80° C. prior to analysis. Blood or plasma concentrations were determined by LC/MS/MS equipped with an electrospray ion source and using calibration curves for the appropriate matrix. The lower level of quantitation (LLQ) was 10 ng/mL. Blood or plasma concentration-time data were analyzed by non-compartmental methods using the computer program WinNonlin Professional (version 4.1). Area under the blood or plasma concentration-time curve (AUC) was calculated using the linear trapezoidal rule for each incremental trapezoid up to Cmax, and the log trapezoidal rule for each trapezoid thereafter. The terminal elimination rate constant (λz) was derived from the log-linear disposition phase of the concentration-time curve using least-squares regression analysis with visual inspection of the data to determine the appropriate number of terminal data points for regression analysis.
Following iv administration, the total body clearance (CL) was estimated. CL was calculated by dividing the dose by AUC(0−t). The clearance values were assigned as follows. Low <30 mL/min/kg, moderate 30-70 mL/min/kg, high >70 mL/min/kg. The assignment was based on hepatic blood flow i.e. hepatic blood flow of 0-30% low, 30-70% moderate and 70-100% high. The hepatic blood flow in mouse is ˜100 mL/min/kg.

LNCap = experiment: Cell-Titer Glo Cell Growth Inhibition Assay, LNCap; format: cell-based; conditions: Homo sapiens, CellTiter-Glo, 72 h, read-out: CTG LNCap IC50
Method: as §1

BT474 = experiment: Cell-Titer Glo Cell Growth Inhibition Assay, BT474; format: cell-based; conditions: Homo sapiens; CellTiter-Glo, 72 h, BT 474; read-out: CTG BT 474 IC50
Method: as §1

MCF7 = experiment: Cell-Titer Glo Cell Growth Inhibition Assay, MCF7; format: cell-based; conditions: Homo sapiens, CellTiter-Glo, 72 h, read-out: CTG MCF7 IC50
Method: as §1

Hela = experiment: Cell-Titer Glo Cell Growth Inhibition Assay, Hela; format: cell-based; conditions: Homo sapiens, CellTiter-Glo, 72 h, read-out: CTG Hela IC50
Method: as §1

HT29 = experiment: Cell-Titer Glo Cell Growth Inhibition Assay, HT29; format: cell-based; conditions: Homo sapiens, HT-29, CellTiter-Glo, 72 h, read-out: CTG HT29 IC50
Method: as §2

A549-L = experiment: Cell-Titer Glo Cell Growth Inhibition Assay, A549-L; format: cell-based; conditions: Homo sapiens, CellTiter-Glo, 72 h, read-out: CTG A549-L IC50
Method: as §2

CCN1CCN(CCCn2cc(-c3ccc4c(c3)ncn4-c3cc(O[C@H](C)c4ccccc4Cl)c(C(N)=O)s3)cn2)CC1 [Example 8, 3-{[(1R)-1-(2-Chlorophenyl)ethyl]oxy}-5-(5-{1-[3-(4-ethyl-1-piperazinyl)propyl]-1H-pyrazol-4-yl}-1H-benzimidazol-1-yl)-2-thiophenecarboxamide] gave an IC50 (HN5) of less than 100 nM, an IC50 (MDA-MB468) of less than 100 nM and an IC50 (P388) of less than 100 nM. For the same molecule, the IC50 (MX-1) was less than 100 nM, the IC50 (HCT-116) was less than 100 nM and the IC50 (H1299) was less than 100 nM. The IC50 (SKOV3) was less than 100 nM, the IC50 (RPMI 8226) was less than 100 nM and the IC50 (Colo 205) was less than 100 nM. For the same molecule, the AUC(0-t) [1] was 1410 ng·h/mL, the clearance ([1]; read-out: Plasma CL) was 43.6 mL/min/kg and the IC50 (LNCap) was less than 100 nM. For the same molecule, the IC50 (BT474) was less than 100 nM, the IC50 (MCF7) was less than 100 nM and the IC50 (Hela) was less than 100 nM. It also gave an IC50 (HT29) of less than 100 nM and an IC50 (A549-L) of less than 100 nM.
